The subject of assay [1] is Staphylococcus aureus. The assay is described as follows: Antibiofilm activity against Staphylococcus aureus ATCC 25923 at 1.5 ug/ml relative to control. It counts as functional.
The test system of assay [2] is Staphylococcus aureus. The assay is described as follows: Antibiofilm activity against Staphylococcus aureus ATCC 29213 at 1.5 ug/ml relative to control. It counts as functional.
Assay [3] concerns Staphylococcus epidermidis. The assay is described as follows: Antibiofilm activity against Staphylococcus epidermidis DSM 3269 at 1.5 ug/ml relative to control. It counts as functional.
Assay [4] concerns Staphylococcus epidermidis. The assay is described as follows: Antibiofilm activity against Staphylococcus epidermidis RP62A at 1.5 ug/ml relative to control. It counts as functional.
For assay [5], the system named is Staphylococcus aureus. The assay is described as follows: Antibiofilm activity against Staphylococcus aureus isolate 657 at 1.5 ug/ml relative to control. It counts as functional.
The subject of assay [6] is Staphylococcus aureus. The assay is described as follows: Antibiofilm activity against Staphylococcus aureus isolate 702 at 1.5 ug/ml relative to control. It counts as functional.
The subject of assay [7] is Enterococcus faecalis. As to the kind of experiment: Antibiofilm activity against Enterococcus faecalis ATCC 29212. It counts as functional.
The subject of assay [8] is Staphylococcus aureus. As to the kind of experiment: Antibiofilm activity against Staphylococcus aureus BAA-1026. It counts as functional.
Assay [9] relates to Staphylococcus aureus. The assay is described as follows: Antibiofilm activity against methicillin-resistant Staphylococcus aureus. It counts as functional, organism-based. Conditions: Staphylococcus aureus.
Assay [10] has as its target T1, Sortase A (Staphylococcus aureus, UniProt Q9S446).
T1 sequence (Q9S446 whole entry): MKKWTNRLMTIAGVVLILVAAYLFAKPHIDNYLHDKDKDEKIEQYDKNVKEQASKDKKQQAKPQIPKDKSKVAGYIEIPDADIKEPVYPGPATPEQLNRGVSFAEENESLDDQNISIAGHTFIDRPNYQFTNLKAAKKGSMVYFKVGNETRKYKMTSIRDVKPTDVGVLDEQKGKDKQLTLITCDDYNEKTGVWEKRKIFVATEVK
The assay is described as follows: Inhibition of Staphylococcus aureus SrtA.

One may read the IC50 as the concentration that gives 50% inhibition.

SMILES strings stand for the structures.

Consider `O=C(c1cc(Br)ccc1O)c1[nH]c(Br)c(Br)c1Br`, for which the Activity in assay [1], in [2], in [3], in assay [4], in [5] and in [6] was >60% throughout.

Take `O=C(c1cc(Br)ccc1O)c1[nH]c(Cl)c(Br)c1Br`: the Activity in [1], in assay [2], in assay [3], in assay [4], in assay [5] and in assay [6] was >60% throughout.

For the compound `Cc1sc(-c2ccc(-c3csc(-c4ccccc4)n3)cc2)nc1-c1ccccc1`, the MBEC was 4 µg/mL in assay [7] and 1000 µg/mL in assay [8].

Take `O=C(c1cc(Br)ccc1O)c1[nH]c(Cl)c(Cl)c1Br`: the Activity in [1], in [2], in [3], in [4], in [5] and in assay [6] was >60% in each case.

Consider `CCCCCCCc1ccc(NC(=O)CCn2cc(C[C@@]34CNC[C@@H]3Nc3ccccc34)nn2)cc1`, for which half-maximal inhibition in [9] (IC50) required 2.8 µM.

For the compound `c1ccc(-c2csc(-c3ccc(-c4csc(-c5ccccc5)n4)cc3)n2)cc1`, the MBEC was 2 µg/mL in assay [7] and 1000 µg/mL in assay [8].

For the compound `CCCCc1ccc(C(=O)NCCn2cc(CCCCc3[nH]c(N)nc3-c3cnc4ccccc4c3)nn2)cc1`, half-maximal inhibition in assay [9] (IC50) required 4.2 µM.

For the compound `CCCCCCc1ccc(NC(=O)CCn2cc(C[C@@]34CNC[C@@H]3Nc3ccccc34)nn2)cc1`, in assay [9], the midpoint of inhibition, the IC50, lay at 3.4 µM.

For `O=C(c1cc(Cl)cc(Cl)c1O)c1[nH]c(Br)c(Br)c1Br`, the Activity in assay [1], in assay [2], in [3], in [4], in assay [5] and in assay [6] was >60% each time.

In the case of `CCCCc1ccc(C(=O)NCCn2cc(CCCCc3[nH]c(N)nc3-c3ccoc3)nn2)cc1`, the IC50 in assay [9] is 7.2 µM.

In the case of `COc1ccc(-c2csc(-c3ccc(-c4csc(-c5ccccc5)n4)cc3)n2)cc1`, the MBEC worked out at 4 µg/mL in assay [7] and 62 µg/mL in assay [8].

Take `O=C(c1cc(Br)c(F)[nH]1)c1cc(Cl)cc(Cl)c1O`: the Activity in assay [1], in assay [2], in assay [3], in assay [4], in [5] and in [6] was >60% throughout.

Consider `CCCCc1ccc(C(=O)NCCn2cc(CCCCc3[nH]c(N)nc3-c3ccc4c(c3)OCO4)nn2)cc1`, for which the half-maximal inhibitory concentration (IC50) in assay [9] is 3.7 µM.

As for `CCCCCCCCCCCCCCNC(=O)Cn1cc(C[C@@]23CNC[C@@H]2Nc2ccccc23)nn1`, in [9], the IC50 is 5.4 µM.

The compound `CCOC(=O)/C(=N/Nc1ccccc1)C(C)=O` returned an IC50 in assay [10] of 192 µM.

`O=C(c1cc(Cl)cc(Cl)c1O)c1[nH]c(Cl)c(Cl)c1Cl`: the Activity in assay [1], in [2], in assay [3], in assay [4], in assay [5] and in assay [6] was >60% throughout.

In assay [9], `COC(=O)Oc1c(Br)cc(Br)c2nc3ccccc3nc12` gave an IC50 of 1.4 to 2.9 µM.

In the case of `O=C(c1cc(Br)cc(Br)c1O)c1[nH]c(Br)c(Br)c1Br`, the Activity in [1], in assay [2], in assay [3], in [4], in assay [5] and in assay [6] was >60% throughout.

For `O=C(c1cc(Br)ccc1O)c1[nH]c(Br)c(Cl)c1Br`, the Activity in assay [1], in assay [2], in assay [3], in assay [4], in assay [5] and in assay [6] was >60% throughout.

As to `O=C(Oc1c(Br)cc(Br)c2nc3ccccc3nc12)c1ccco1`, the IC50 in assay [9] was 1.4 to 2.9 µM.

Values taken from ChEMBL document CHEMBL4325854, “Synthetic small molecules as anti-biofilm agents in the struggle against antibiotic resistance” (Eur J Med Chem, 2019).
